{
  "source": "patent US20080033017A1",
  "about": "“COMPOSITIONS FOR ENHANCED ACARICIDAL ACTIVITY” (priority 2000, published 2008)",
  "key": {"D. VARIABILIS": {"tested_on": "D. VARIABILIS", "test": "Comparative tick control on dogs, D. variabilis, percent control", "format": "in vivo, Dermacentor variabilis", "parameters": "concentration or dose not given beside the values", "text": "(§1) The purpose of this study was to was to determine comparative flea and tick control over a 30 day interval of a combination application of a pyrethroid and a chloronicotinyl insecticide applied dermally to dogs. This combination was compared with permethrin alone, imidacloprid alone, fipronil and selamectin. The latter two compounds are present in products that currently carry claims for both tick and flea control\n(§2) Thirty-six dogs were divided into six groups of 6 dogs per group. Each dog received a single topically-applied treatment of the either “Kiltix”, a product available from Bayer Corporation containing 45% w/w permethrin, Advantage®, a product available from Bayer Corporation containing 9.1% w/w imidacloprid, a combination of Kiltix and Advantage containing 45% w/w permethrin+9.1% w/w imidacloprid, Top Spot), a product available from Merial containing 9.7% fipronil or Revolution®, a product available from Pfizer Inc. containing 12% w/v selamectin in accordance with the appropriate dose and label instructions for the various product applications. Control dogs remained untreated. All products were provided in the commercial unit dose applicator tubes.\n(§3) The dogs were bathed with a mild non-medicated shampoo and thoroughly combed to remove any existing fleas or ticks 7 to 14 days prior to treatment. The dogs were infested with 100 unfed adult ticks (50 Dermacentor variabilis and 50 Rhipiciphalus sanguineus) and 100 unfed adult fleas on Day −3. Live fleas and ticks were counted on Day −1. The dogs were ranked according to total pretreatment live tick counts from highest to lowest. The 36 dogs with the highest counts were selected for the study. Each consecutive group of 6 dogs comprised one block. Treatment was randomly assigned within each block of dogs.\n(§4) Each dog was examined visually for fleas and ticks on Days 1, 7, 14, 21, and 28 following treatment. The hair was parted with the thumbs and fingers to count fleas and ticks. Live tick counts were recorded by species. Live ticks only were counted visually on Days 2, 8, 15, 22, and 29. The dogs were combed on Days 3, 9, 16, 23, and 30. All remaining live fleas and ticks were counted and removed."}, "R. SANGUINEUS": {"tested_on": "R. SANGUINEUS", "test": "Comparative tick control on dogs, R. sanguineus, percent control", "format": "in vivo, Rhipicephalus sanguineus", "parameters": "Percent control R. sanguineus: concentration or dose not given beside the values", "text": "as §1, §2, §3, §4"}, "[1]": {"tested_on": "both species of ticks (D. variabilis and R. sanguineus)", "test": "Tick control on dogs, both species together", "format": "in vivo, Dermacentor variabilis and Rhipicephalus sanguineus", "conditions": "single topical treatment", "text": "as §1\nThirty-six dogs were divided into six groups of 6 dogs per group. […]\nThe dogs were bathed with a mild non-medicated shampoo and thoroughly combed to remove any existing fleas or ticks 7 to 14 days prior to treatment. […] Live fleas and ticks were counted on Day −1. […]\nEach dog was examined visually for fleas and ticks on Days 1, 7, 14, 21, and 28 following treatment. […] Live tick counts were recorded by species. Live ticks only were counted visually on Days 2, 8, 15, 22, and 29. […] All remaining live fleas and ticks were counted and removed."}, "FLEAS (Siphoneptera)": {"tested_on": "FLEAS (Siphoneptera)", "test": "Comparative flea control on dogs, percent control", "format": "in vivo", "parameters": "Percent control fleas: concentration or dose not given beside the values", "text": "as §1, §2, §3, §4"}, "[2]": {"conditions": "Study Day 1, single topical treatment"}, "[3]": {"conditions": "Study Day 2, single topical treatment"}, "[4]": {"conditions": "Study Day 3, single topical treatment"}, "[5]": {"conditions": "Study Day 7, single topical treatment"}, "[6]": {"conditions": "Study Day 8, single topical treatment"}, "[7]": {"conditions": "Study Day 9, single topical treatment"}, "[8]": {"conditions": "Study Day 14, single topical treatment"}, "[9]": {"conditions": "Study Day 15, single topical treatment"}, "[10]": {"conditions": "Study Day 16, single topical treatment"}, "[11]": {"conditions": "Study Day 21, single topical treatment"}, "[12]": {"conditions": "Study Day 22, single topical treatment"}, "[13]": {"conditions": "Study Day 23, single topical treatment"}, "[14]": {"conditions": "Study Day 28, single topical treatment"}},
  "data": [
    {"smiles": "CC1(C)C(C=C(Cl)Cl)C1C(=O)OCc1cccc(Oc2ccccc2)c1", "note": "(stereo not drawn) [Permethrin]", "values": [
      {"measurement": "Percent control D. variabilis", "setting": "D. VARIABILIS; [2]", "result": 36.2, "unit": "%"},
      {"measurement": "Percent control D. variabilis", "setting": "D. VARIABILIS; [3]", "result": 53.9, "unit": "%"},
      {"measurement": "Percent control D. variabilis", "setting": "D. VARIABILIS; [4]", "result": 75.3, "unit": "%"},
      {"measurement": "Percent control D. variabilis", "setting": "D. VARIABILIS; [5]", "result": 95.2, "unit": "%"},
      {"measurement": "Percent control D. variabilis", "setting": "D. VARIABILIS; [6]", "result": 96.1, "unit": "%"},
      {"measurement": "Percent control D. variabilis", "setting": "D. VARIABILIS; [7]", "result": 97.1, "unit": "%"},
      {"measurement": "Percent control D. variabilis", "setting": "D. VARIABILIS; [8]", "result": 91.5, "unit": "%"},
      {"measurement": "Percent control D. variabilis", "setting": "D. VARIABILIS; [9]", "result": 92.9, "unit": "%"},
      {"measurement": "Percent control D. variabilis", "setting": "D. VARIABILIS; [10]", "result": 96.8, "unit": "%"},
      {"measurement": "Percent control D. variabilis", "setting": "D. VARIABILIS; [11]", "result": 90.8, "unit": "%"},
      {"measurement": "Percent control D. variabilis", "setting": "D. VARIABILIS; [12]", "result": 85.1, "unit": "%"},
      {"measurement": "Percent control D. variabilis", "setting": "D. VARIABILIS; [13]", "result": 89.3, "unit": "%"},
      {"measurement": "Percent control D. variabilis", "setting": "D. VARIABILIS; [14]", "result": 79.3, "unit": "%"},
      {"measurement": "Percent control R. sanguineus", "setting": "R. SANGUINEUS; [2]", "result": 72.7, "unit": "%"},
      {"measurement": "Percent control R. sanguineus", "setting": "R. SANGUINEUS; [3]", "result": 75.0, "unit": "%"},
      {"measurement": "Percent control R. sanguineus", "setting": "R. SANGUINEUS; [4]", "result": 85.0, "unit": "%"},
      {"measurement": "Percent control R. sanguineus", "setting": "R. SANGUINEUS; [5]", "result": 99.4, "unit": "%"},
      {"measurement": "Percent control R. sanguineus", "setting": "R. SANGUINEUS; [6]", "result": 100, "unit": "%"},
      {"measurement": "Percent control R. sanguineus", "setting": "R. SANGUINEUS; [7]", "result": 99.0, "unit": "%"},
      {"measurement": "Percent control R. sanguineus", "setting": "R. SANGUINEUS; [8]", "result": 95.2, "unit": "%"},
      {"measurement": "Percent control R. sanguineus", "setting": "R. SANGUINEUS; [9]", "result": 98.9, "unit": "%"},
      {"measurement": "Percent control R. sanguineus", "setting": "R. SANGUINEUS; [10]", "result": 99.4, "unit": "%"},
      {"measurement": "Percent control R. sanguineus", "setting": "R. SANGUINEUS; [11]", "result": 89.4, "unit": "%"},
      {"measurement": "Percent control R. sanguineus", "setting": "R. SANGUINEUS; [12]", "result": 91.7, "unit": "%"},
      {"measurement": "Percent control R. sanguineus", "setting": "R. SANGUINEUS; [13]", "result": 91.5, "unit": "%"},
      {"measurement": "Percent control R. sanguineus", "setting": "R. SANGUINEUS; [14]", "result": 68.6, "unit": "%"},
      {"measurement": "time required to approach a 100% killing of ticks", "setting": "[1]", "result": 7, "unit": "days"},
      {"measurement": "Percent control fleas", "setting": "FLEAS (Siphoneptera); Day 1, single topical treatment", "result": 89.8, "unit": "%"},
      {"measurement": "Percent control fleas", "setting": "FLEAS (Siphoneptera); Day 3, single topical treatment", "result": 93.9, "unit": "%"},
      {"measurement": "Percent control fleas", "setting": "FLEAS (Siphoneptera); Day 7, single topical treatment", "result": 79.4, "unit": "%"},
      {"measurement": "Percent control fleas", "setting": "FLEAS (Siphoneptera); Day 9, single topical treatment", "result": 87.8, "unit": "%"},
      {"measurement": "Percent control fleas", "setting": "FLEAS (Siphoneptera); Day 14, single topical treatment", "result": 71.9, "unit": "%"},
      {"measurement": "Percent control fleas", "setting": "FLEAS (Siphoneptera); Day 16, single topical treatment", "result": 65.1, "unit": "%"},
      {"measurement": "Percent control fleas", "setting": "FLEAS (Siphoneptera); Day 21, single topical treatment", "result": 52.9, "unit": "%"},
      {"measurement": "Percent control fleas", "setting": "FLEAS (Siphoneptera); Day 23, single topical treatment", "result": 41.9, "unit": "%"},
      {"measurement": "Percent control fleas", "setting": "FLEAS (Siphoneptera); Day 28, single topical treatment", "result": 43.9, "unit": "%"},
      {"measurement": "Percent control fleas", "setting": "FLEAS (Siphoneptera); Day 30, single topical treatment", "result": 7.7, "unit": "%"},
      {"measurement": "Percent control fleas", "setting": "FLEAS (Siphoneptera); Day −1 (pretreatment count)", "result": 1.5, "unit": "%"},
      {"measurement": "killing of fleas (in words)", "setting": "FLEAS (Siphoneptera); from day 1 through day 21", "result": "some killing effect on fleas"}
    ]}
  ]
}
